Data set [1] is described as follows: Antiproliferative activity against human HCT116 cells expressing wild type p53 assessed as growth inhibition after 72 hrs by MTT assay. Format: functional, cell-based. To be noted: HCT-116, 72 h. A general note: Tetrazolium dyes change colour on reduction, which living cells bring about.
Data set [2] can be described thus: Antiproliferative activity against human p53-null HCT116 cells assessed as growth inhibition after 72 hrs by MTT assay. Format: functional, cell-based. To be noted: HCT-116, 72 h.
Data set [3] relates to MCF7. Nature of the data set: Antiproliferative activity against human MCF7 cells assessed as growth inhibition after 72 hrs by MTT assay. Format: functional, cell-based. To be noted: MCF7, 72 h.
A short description of data set [4]: Antiproliferative activity against human MDA-MB-435S cells assessed as growth inhibition after 72 hrs by MTT assay. Format: functional, cell-based.
In data set [5] the target is Hypoxia-inducible factor 1-alpha (Homo sapiens) (UniProt Q16665). Kind of data set: Inhibition of HIF-1 (unknown origin) expressed in human MCF7 cells co-transfected with hypoxia reporter plasmid p(HRE)3-Luc at 10 uM measured under hypoxia condition after 24 hrs by dual-luciferase reporter assay. The class given is cell-based. (In general: A reporter such as luciferase makes a cellular process visible.)

Data set [6] concerns MCF7. Nature of the data set: Cytotoxicity against human MCF7 cells co-transfected with hypoxia reporter plasmid p(HRE)3-Luc at 20 uM. The class given is cell-based. The settings on record: mcf7, 20 µM.
The target of data set [7] is Hypoxia-inducible factor 1-alpha (Homo sapiens) (UniProt Q16665). Nature of the data set: Inhibition of HIF-1 (unknown origin) expressed in human MCF7 cells co-transfected with hypoxia reporter plasmid p(HRE)3-Luc at 20 uM measured under hypoxia condition after 24 hrs by dual-luciferase reporter assay. The class given is cell-based.
Data set [8] has the same target. Nature of the data set: Inhibition of HIF1 in human MCF7 cells assessed as reduction in VEGF mRNA expression after 24 hrs under hypoxia condition by real-time PCR analysis. Format: cell-based.
Data set [9] has as its system HCT-116. Kind of data set: Induction of apoptosis in human p53-null HCT116 -/- cells assessed as morphological change at 5 to 20 uM after 48 hrs by Annexin V-FITC/propidium iodide staining based flow cytometry. The class given is functional, cell-based. (A flow cytometer gives signals particle by particle.)
Data set [10] has as its system HCT-116. Nature of the data set: Induction of apoptosis in human p53-null HCT116 -/- cells assessed as viable cells at 5 uM after 48 hrs by Annexin V-FITC/propidium iodide staining based flow cytometry (reference value: 85.26%). The settings on record: HCT-116, 48 h, read-out: Activity. Format: functional.
For data set [11], the system named is HCT-116. Nature of the data set: Induction of apoptosis in human p53-null HCT116 -/- cells assessed as early apoptotic cells at 5 uM after 48 hrs by Annexin V-FITC/propidium iodide staining based flow cytometry (reference value: 6.96%). The class given is functional.
Data set [12] concerns HCT-116. Nature of the data set: Induction of apoptosis in human p53-null HCT116 -/- cells assessed as late apoptotic cells at 5 uM after 48 hrs by Annexin V-FITC/propidium iodide staining based flow cytometry (reference value: 3.11%). Format: functional.
For data set [13], the system named is HCT-116. Kind of data set: Induction of apoptosis in human p53-null HCT116 -/- cells assessed as necrotic cells at 5 uM after 48 hrs by Annexin V-FITC/propidium iodide staining based flow cytometry (reference value: 4.67%). The class given is functional.
Data set [14] has as its system HCT-116. Nature of the data set: Induction of apoptosis in human p53-null HCT116 -/- cells assessed as viable cells at 10 uM after 48 hrs by Annexin V-FITC/propidium iodide staining based flow cytometry (reference value: 85.26%). The class given is functional. The settings on record: HCT-116, 48 h, read-out: Activity.
Data set [15] deals with HCT-116. Kind of data set: Induction of apoptosis in human p53-null HCT116 -/- cells assessed as early apoptotic cells at 10 uM after 48 hrs by Annexin V-FITC/propidium iodide staining based flow cytometry (reference value: 6.96%). The class given is functional.
The subject of data set [16] is HCT-116. Nature of the data set: Induction of apoptosis in human p53-null HCT116 -/- cells assessed as late apoptotic cells at 10 uM after 48 hrs by Annexin V-FITC/propidium iodide staining based flow cytometry (reference value: 3.11%). Format: functional.
Data set [17] concerns HCT-116. Kind of data set: Induction of apoptosis in human p53-null HCT116 -/- cells assessed as necrotic cells at 10 uM after 48 hrs by Annexin V-FITC/propidium iodide staining based flow cytometry (reference value: 4.67%). The class given is functional.
In data set [18] the test system is HCT-116. Kind of data set: Induction of apoptosis in human p53-null HCT116 -/- cells assessed as viable cells at 20 uM after 48 hrs by Annexin V-FITC/propidium iodide staining based flow cytometry (reference value: 85.26%). To be noted: HCT-116, 48 h, read-out: Activity. The class given is functional.
The test system of data set [19] is HCT-116. Kind of data set: Induction of apoptosis in human p53-null HCT116 -/- cells assessed as early apoptotic cells at 20 uM after 48 hrs by Annexin V-FITC/propidium iodide staining based flow cytometry (reference value: 6.96%). The class given is functional.
The test system of data set [20] is HCT-116. Nature of the data set: Induction of apoptosis in human p53-null HCT116 -/- cells assessed as late apoptotic cells at 20 uM after 48 hrs by Annexin V-FITC/propidium iodide staining based flow cytometry ( Rvb = 3.11%). The class given is functional.
Data set [21] concerns HCT-116. Kind of data set: Induction of apoptosis in human p53-null HCT116 -/- cells assessed as necrotic cells at 20 uM after 48 hrs by Annexin V-FITC/propidium iodide staining based flow cytometry (reference value: 4.67%). The class given is functional.
Data set [22] is described as follows: Cell cycle arrest in human p53-null HCT116 -/- cells assessed as accumulation at G1-phase at 5 uM after 12 hrs by propidium iodide staining based flow cytometry (reference value: 27.78%). The class given is functional. The settings on record: HCT-116.
A short description of data set [23]: Cell cycle arrest in human p53-null HCT116 -/- cells assessed as accumulation at S-phase at 5 uM after 12 hrs by propidium iodide staining based flow cytometry (reference value: 69.57%). Format: functional. The settings on record: HCT-116.
Data set [24] in a line: Cell cycle arrest in human p53-null HCT116 -/- cells assessed as accumulation at G2-phase at 5 uM after 12 hrs by propidium iodide staining based flow cytometry (reference value: 2.35%). Format: functional. The settings on record: HCT-116.
A short description of data set [25]: Cell cycle arrest in human p53-null HCT116 -/- cells assessed as accumulation at G1-phase at 10 uM after 12 hrs by propidium iodide staining based flow cytometry (reference value: 27.78%). The class given is functional. The settings on record: HCT-116.
Data set [26] can be described thus: Cell cycle arrest in human p53-null HCT116 -/- cells assessed as accumulation at S-phase at 10 uM after 12 hrs by propidium iodide staining based flow cytometry (reference value: 69.57%). Format: functional. To be noted: HCT-116.
A short description of data set [27]: Cell cycle arrest in human p53-null HCT116 -/- cells assessed as accumulation at G2-phase at 10 uM after 12 hrs by propidium iodide staining based flow cytometry (reference value: 2.35%). Format: functional. To be noted: HCT-116.
A short description of data set [28]: Cell cycle arrest in human p53-null HCT116 -/- cells assessed as accumulation at G1-phase at 20 uM after 12 hrs by propidium iodide staining based flow cytometry (reference value: 27.78%). The class given is functional. To be noted: HCT-116.
Data set [29] can be described thus: Cell cycle arrest in human p53-null HCT116 -/- cells assessed as accumulation at S-phase at 20 uM after 12 hrs by propidium iodide staining based flow cytometry (reference value: 69.57%). The class given is functional. The settings on record: HCT-116.
A short description of data set [30]: Cell cycle arrest in human p53-null HCT116 -/- cells assessed as accumulation at G2-phase at 20 uM after 12 hrs by propidium iodide staining based flow cytometry (reference value: 2.35%). The settings on record: HCT-116. Format: functional.
Data set [31] in a line: Decrease in procaspase-3 expression level in human p53-null HCT116 -/- cells at 1 to 20 uM after 24 hrs by western blot analysis. The class given is functional, cell-based. The settings on record: HCT-116.
Data set [32] is described as follows: Decrease in procaspase-9 expression level in human p53-null HCT116 -/- cells at 1 to 20 uM after 24 hrs by western blot analysis. Format: functional, cell-based. The settings on record: HCT-116.
Data set [33] deals with HCT-116. Nature of the data set: Induction of apoptosis in human p53-null HCT116 -/- cells assessed as early apoptotic cells after 48 hrs by Annexin V-FITC/propidium iodide staining based flow cytometry. Format: functional, cell-based.
Data set [34] relates to HCT-116. Nature of the data set: Induction of apoptosis in human p53-null HCT116 -/- cells assessed as late apoptotic cells after 48 hrs by Annexin V-FITC/propidium iodide staining based flow cytometry. The class given is functional, cell-based.
Data set [35] in a line: Cell cycle arrest in human p53-null HCT116 -/- cells assessed as accumulation at G1-phase after 12 hrs by propidium iodide staining based flow cytometry. The settings on record: HCT-116. The class given is functional.

Activity calls are given as the source filed them. The rule behind the calls is not given here.

Chain of Hypoxia-inducible factor 1-alpha (Homo sapiens) (Q16665 whole entry, looked up): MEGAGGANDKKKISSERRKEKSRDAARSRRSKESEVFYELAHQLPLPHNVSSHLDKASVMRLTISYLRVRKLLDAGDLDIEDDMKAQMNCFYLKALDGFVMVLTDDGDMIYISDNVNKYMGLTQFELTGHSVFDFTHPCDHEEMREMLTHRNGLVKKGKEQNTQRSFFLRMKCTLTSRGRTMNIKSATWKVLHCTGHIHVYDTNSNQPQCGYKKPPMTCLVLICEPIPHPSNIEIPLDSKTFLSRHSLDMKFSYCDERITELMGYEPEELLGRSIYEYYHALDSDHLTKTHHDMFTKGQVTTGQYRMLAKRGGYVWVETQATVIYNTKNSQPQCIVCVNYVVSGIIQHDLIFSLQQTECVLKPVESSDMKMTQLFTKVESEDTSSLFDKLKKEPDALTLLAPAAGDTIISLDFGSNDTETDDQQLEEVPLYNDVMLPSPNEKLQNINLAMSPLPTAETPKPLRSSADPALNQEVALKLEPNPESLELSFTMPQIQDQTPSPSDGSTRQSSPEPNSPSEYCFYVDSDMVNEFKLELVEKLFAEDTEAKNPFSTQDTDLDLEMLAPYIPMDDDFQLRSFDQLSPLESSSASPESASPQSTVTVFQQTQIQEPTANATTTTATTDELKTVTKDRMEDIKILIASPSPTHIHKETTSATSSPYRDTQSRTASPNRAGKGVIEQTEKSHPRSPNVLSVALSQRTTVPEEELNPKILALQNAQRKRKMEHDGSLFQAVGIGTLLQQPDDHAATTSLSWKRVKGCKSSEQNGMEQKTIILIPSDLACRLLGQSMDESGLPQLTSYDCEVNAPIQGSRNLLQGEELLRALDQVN

Consider `CNCCNC(=O)c1oc2ccc(N(Cc3ccc(Cl)cc3)S(=O)(=O)c3ccc(Cl)cc3)cc2c1C`, for which the half-maximal inhibitory concentration (IC50) (in general, the midpoint of a concentration-inhibition curve) in [1] came out at 1.81 µM; in [2], 4.03 µM; in [3] it was 5.67 µM; in [4], 1.63 µM. For the same molecule, in [5], the inhibition (in general, how much of the control response was suppressed) turned out to be 22.2%. Besides, the Activity result in [6] was “Toxic”.

Consider `CNCCNC(=O)c1oc2ccc(N(Cc3ccccc3)S(=O)(=O)c3ccc(Cl)cc3)cc2c1C`, for which the IC50 amounted to 3 µM in [1], 2.91 µM in data set [2], 4.56 µM in data set [3] and 4.71 µM in data set [4]. In addition, the inhibition in data set [7] was 47.3%; in [8], “Dose-dependent effect”. Further, the outcome in data set [9] was Active. For the same molecule, the viability at 5 µM in data set [10] stood at 77.3%. Also, the Activity came to 15.42% in [11]; 6.74% in [12]; 0.5% in [13]; 55.86% in data set [15]; 14.99% in data set [16]; 1.05% in [17]. Further, the Activity in data set [19] was 62.28%; in data set [20], 34.63%; in data set [21], 0.02%; in [22] it was 36.2%; in data set [23], 60.2%; in data set [24], 3.6%. In addition, the Activity in [25] stood at 52.8%; in [26], 42.9%; in data set [27], 4.26%; in [28], 59.7%; in [29] it was 32.2%; in data set [30], 8.1%. For the same molecule, the Activity result in data set [33], in [34] and in data set [35] was “Dose-dependent effect” in each case. The viability at 10 µM in [14] was 28.1%. In addition, in [18], the viability at 20 µM came to 3.07%. For the same molecule, the inhibition entry in data set [31] and in data set [32] was “Active” throughout.

For the origin of these results see ChEMBL document CHEMBL3804813, “Discovery and optimization of new benzofuran derivatives against p53-independent malignant cancer cells through inhibition of HIF-1 pathway” (Bioorg Med Chem Lett, 2016).
